In ChEMBL document CHEMBL1201862, “PubChem BioAssay data set” (2004):
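Growth conditions: 96-well plates. Treatment: test compound, 48 hours, 5 concentrations. Analysis: linear interpolation between bracketing concentrations; unreached endpoints set to highest concentration. Here, GI50 denotes the concentration required for 50% inhibition of growth.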 Calls of active or inactive are those of the source. Rule as the data show it: active = GI50 up to about 1.1 µM and inactive = higher.

Legend:
Test in all cases: growth of human tumour cells (NCI), 48 h
[1] = tested on: 786-0
[2] = tested on: A549
[3] = tested on: ACHN
[4] = tested on: BT-549
[5] = tested on: CAKI-1
[6] = tested on: COLO 205
[7] = tested on: DU-145
[8] = tested on: HCC 2998
[9] = tested on: HCT-116
[10] = tested on: HCT-15
[11] = tested on: HL-60
[12] = tested on: HOP-62
[13] = tested on: HOP-92
[14] = tested on: HT-29
[15] = tested on: Hs-578T
[16] = tested on: IGROV-1
[17] = tested on: K562
[18] = tested on: KM12
[19] = tested on: LOX IMVI
[20] = tested on: M14
[21] = tested on: MCF7
[22] = tested on: MDA-MB-231
[23] = tested on: MDA-MB-435
[24] = tested on: MDA-N
[25] = tested on: MOLT-4
[26] = tested on: Malme-3M
[27] = tested on: NCI-H23
[28] = tested on: NCI-H522
[29] = tested on: NCI/ADR-RES
[30] = tested on: OVCAR-3
[31] = tested on: OVCAR-4
[32] = tested on: OVCAR-8
[33] = tested on: PC-3
[34] = tested on: RPMI-8226
[35] = tested on: SF-268
[36] = tested on: SF-295
[37] = tested on: SF-539
[38] = tested on: SK-MEL-28
[39] = tested on: SK-MEL-5
[40] = tested on: SK-OV-3
[41] = tested on: SN12C
[42] = tested on: SNB-19
[43] = tested on: SNB-75
[44] = tested on: SR
[45] = tested on: SW-620
[46] = tested on: T47D
[47] = tested on: TK-10
[48] = tested on: U-251
[49] = tested on: UACC-257
[50] = tested on: UACC-62
[51] = tested on: A498
[52] = tested on: CCRF-CEM
[53] = tested on: EKVX
[54] = tested on: NCI-H226
[55] = tested on: NCI-H460
[56] = tested on: OVCAR-5
[57] = tested on: RXF 393
[58] = tested on: SK-MEL-2
[59] = tested on: UO-31

Measured: GI50

COC(=O)C1=Nc2c(C)nn(-c3ccccc3)c2N=C(c2ccc(C)cc2)C1
inactive: [1] > 10 µM | [2] > 10 µM | [3] > 10 µM | [4] > 10 µM | [5] > 10 µM | [6] > 10 µM | [7] > 10 µM | [8] > 10 µM | [9] > 10 µM | [11] > 10 µM | [12] > 10 µM | [13] > 10 µM | [14] > 10 µM | [15] > 10 µM | [16] > 10 µM | [17] > 10 µM | [18] > 10 µM | [19] > 10 µM | [20] > 10 µM | [21] > 10 µM | [22] > 10 µM | [23] > 10 µM | [24] > 10 µM | [25] > 10 µM | [26] > 10 µM | [27] > 10 µM | [28] > 10 µM | [29] > 10 µM | [30] > 10 µM | [31] > 10 µM | [32] > 10 µM | [33] > 10 µM | [34] > 10 µM | [35] > 10 µM | [36] > 10 µM | [37] > 10 µM | [38] > 10 µM | [39] > 10 µM | [40] > 10 µM | [41] > 10 µM | [42] > 10 µM | [43] > 10 µM | [44] > 10 µM | [45] > 10 µM | [46] > 10 µM | [47] > 10 µM | [48] > 10 µM | [49] > 10 µM | [50] > 10 µM
> 10 µM: [10]

CC(=O)Nc1ccc2c(c1)nc1c3ccccc3ccn21
> 100 µM: [10]
inactive: [1] > 100 µM | [51] > 100 µM | [2] > 100 µM | [3] > 100 µM | [4] > 100 µM | [5] 96.4 µM | [52] 27.8 µM | [6] > 100 µM | [7] > 100 µM | [53] > 100 µM | [9] 55.6 µM | [11] > 100 µM | [12] 50.6 µM | [13] > 100 µM | [14] > 100 µM | [15] > 100 µM | [16] > 100 µM | [17] 56.1 µM | [18] 81.1 µM | [19] > 100 µM | [20] > 100 µM | [21] > 100 µM | [22] > 100 µM | [23] > 100 µM | [24] > 100 µM | [25] > 100 µM | [26] > 100 µM | [54] > 100 µM | [27] > 100 µM | [55] > 100 µM | [28] > 100 µM | [29] > 100 µM | [31] > 100 µM | [56] > 100 µM | [32] > 100 µM | [33] > 100 µM | [57] 99.1 µM | [35] > 100 µM | [36] 85.9 µM | [37] > 100 µM | [38] > 100 µM | [58] > 100 µM | [39] > 100 µM | [40] > 100 µM | [41] > 100 µM | [42] > 100 µM | [43] 71.9 µM | [44] > 100 µM | [45] > 100 µM | [46] > 100 µM | [47] > 100 µM | [48] > 100 µM | [49] > 100 µM | [50] > 100 µM | [59] 90.4 µM

O=C(c1ccccn1)C1(N2CCCCC2)CCCCC1
inactive: [1] > 100 µM | [51] > 100 µM | [2] > 100 µM | [3] > 100 µM | [4] > 100 µM | [5] > 100 µM | [52] > 100 µM | [6] > 100 µM | [7] > 100 µM | [53] > 100 µM | [8] > 100 µM | [9] > 100 µM | [11] 88.3 µM | [12] > 100 µM | [13] 9.75 µM | [14] 78 µM | [15] 15.5 µM | [16] 87.7 µM | [17] > 100 µM | [18] > 100 µM | [19] > 100 µM | [20] > 100 µM | [21] > 100 µM | [22] > 100 µM | [23] > 100 µM | [24] > 100 µM | [25] > 100 µM | [54] > 100 µM | [27] 91.6 µM | [28] 15.5 µM | [29] 46.5 µM | [30] > 100 µM | [31] > 100 µM | [56] > 100 µM | [32] > 100 µM | [33] > 100 µM | [34] 50.2 µM | [35] 17.5 µM | [36] > 100 µM | [37] > 100 µM | [38] > 100 µM | [58] > 100 µM | [39] > 100 µM | [40] > 100 µM | [41] > 100 µM | [42] > 100 µM | [44] > 100 µM | [45] > 100 µM | [46] 46 µM | [47] > 100 µM | [48] > 100 µM | [49] > 100 µM | [50] > 100 µM | [59] > 100 µM
> 100 µM: [10]

Cc1c2ccccc2c(C)n2c1nc1cc(Cl)c(Cl)cc12
inactive: [1] 6.47 µM | [2] > 10 µM | [3] > 10 µM | [4] > 10 µM | [5] > 10 µM | [52] > 10 µM | [6] > 10 µM | [7] > 10 µM | [53] > 10 µM | [8] > 10 µM | [9] > 10 µM | [11] 3.88 µM | [12] > 10 µM | [14] > 10 µM | [15] > 10 µM | [16] > 10 µM | [17] > 10 µM | [18] > 10 µM | [19] 2.78 µM | [20] > 10 µM | [21] 1.59 µM | [22] > 10 µM | [23] > 10 µM | [24] > 10 µM | [25] 2.93 µM | [27] > 10 µM | [55] 4.04 µM | [28] 5.81 µM | [31] > 10 µM | [56] > 10 µM | [32] > 10 µM | [33] > 10 µM | [34] 8.83 µM | [57] > 10 µM | [35] > 10 µM | [36] 8.65 µM | [37] > 10 µM | [38] > 10 µM | [58] > 10 µM | [39] > 10 µM | [40] > 10 µM | [41] > 10 µM | [42] > 10 µM | [43] 3.8 µM | [44] > 10 µM | [45] > 10 µM | [46] > 10 µM | [47] > 10 µM | [48] > 10 µM | [49] > 10 µM | [50] > 10 µM
active: [26] 0.166 µM | [54] 0.0296 µM | [29] 0.172 µM | [30] 0.163 µM
> 10 µM: [10]

COc1nc(-c2c[nH]c3ccccc23)cnc1N
inactive: [1] 15.6 µM | [51] 15.1 µM | [2] 31.2 µM | [3] 14.2 µM | [4] 33.7 µM | [5] 24.6 µM | [6] 29 µM | [7] 23.4 µM | [53] 6.35 µM | [8] 67.9 µM | [9] 21.7 µM | [11] 4.85 µM | [12] 48.9 µM | [14] 19.3 µM | [15] 17.7 µM | [16] 19.6 µM | [17] 33.6 µM | [18] 9.18 µM | [19] 25.3 µM | [20] 30.1 µM | [21] 2.85 µM | [22] 18.1 µM | [23] 23.4 µM | [24] 18.4 µM | [25] 2.56 µM | [55] 26.4 µM | [29] 38.5 µM | [30] 39.6 µM | [31] 29.6 µM | [56] 14.4 µM | [32] 31.5 µM | [33] 26.5 µM | [35] 23.6 µM | [36] 29.4 µM | [37] 33.7 µM | [38] 25.5 µM | [58] 25 µM | [39] 37.9 µM | [40] 30.9 µM | [41] 5.87 µM | [42] 66.4 µM | [44] 15 µM | [45] 32.6 µM | [46] 1.56 µM | [47] > 100 µM | [48] 31 µM | [49] 22.4 µM | [50] 16.4 µM | [59] 21.2 µM
22.8 µM: [10]
active: [52] 0.809 µM | [13] 0.0306 µM | [34] 1.01 µM
